pEC50, pIC50: −log10 of the molar value. Values after ≈ are worked out from the molar mass of the structure shown. Non-standard residues stand in square brackets, D forms with d. Residues, ends and D or L forms follow the SMILES beside them. dNMeY = CN[C@H](Cc1ccc(O)cc1)C(=O)O
Key:
Chikungunya virus = experiment: Antiviral activity against CHIKV infected in Golden hamster BHK-21 cells assessed as reduction in viral titer incubated for 3 days by plaque assay; format: functional, organism-based; conditions: BHK-21, 72 h
Human alphaherpesvirus 1 [1] = format: functional, organism-based; conditions: Human alphaherpesvirus 1, 15577, Vero
Influenza A virus [2] = experiment: microbe, parasite or virus in culture; conditions: H3N2, MDCK, 48 h
Enterovirus A71 [3] = format: functional, organism-based; conditions: Enterovirus A, Vero
Influenza A virus [4] = format: functional
Influenza A virus [5] = format: functional, organism-based; conditions: A/Puerto Rico/8/1934(H1N1), MDCK, 48 h
[6] = Cytotoxicity against human HEK293 cells assessed as reduction in cell viability; format: toxicity, cell-based
[7] = test system: Respiratory syncytial virus; format: functional, organism-based; conditions: human respiratory syncytial virus, HEp-2
Human alphaherpesvirus 1 [8] = format: functional, organism-based; conditions: Human alphaherpesvirus 1, Vero, 72 h
Human alphaherpesvirus 1 [9] = format: functional, organism-based; conditions: Human alphaherpesvirus 1, Vero, 72 h; remark: listed apart in the source
Influenza A virus [10] = format: functional, organism-based; conditions: H1N1
Enterovirus A71 [11] = format: functional, organism-based; conditions: Enterovirus A, Vero; remark: listed apart in the source
[12] = test system: Human immunodeficiency virus 1; experiment: Antiviral activity against HIV-1 infected in human HEK293 cells co-expressing firefly luciferase gene assessed as inhibition of viral growth incubated for 48 hrs by firefly luciferase assay; format: functional, organism-based; conditions: Human immunodeficiency virus 1, HEK293, 48 h
Human alphaherpesvirus 1 [13] = format: functional, organism-based; conditions: Human alphaherpesvirus 1, Vero, 72 h; remark: listed apart in the source
Human alphaherpesvirus 1 [14] = format: functional, organism-based; conditions: Human alphaherpesvirus 1, KOS, Vero, 72 h
Influenza A virus [15] = experiment: microbe, parasite or virus in culture; conditions: H1N1, MDCK, 48 h
Human alphaherpesvirus 1 [16] = format: functional, organism-based; conditions: Human alphaherpesvirus 1, Vero, 72 h; remark: listed apart in the source
Influenza A virus [17] = experiment: microbe, parasite or virus in culture; conditions: H3N2, Vero
[18] = test system: Western equine encephalitis virus; experiment: Antiviral activity against Western equine encephalomyelitis virus Cba-87 infected in Golden hamster BSR-T7/5 cells assessed as reduction in viral RNA replication by RT-PCR analysis; format: functional, organism-based; conditions: Cba-87, BSR-T7/5

With `CO[C@@H](CC[C@H](C)[C@H]1O[C@]23C[C@H](OC(=O)C[C@H]([C@@H](C)O)OC(=O)CC(=C(C)CC2(C)C)O3)[C@@H]1C)c1cccc(O)c1` the pIC50 (Chikungunya virus) was 4.65.
Work on `COc1ccc(C[C@@H]2NC(=O)[C@@H]3CCCN3C(=O)[C@H](C(C)C)NC(=O)[C@@H](Cc3ccc(O)cc3)N(C)C(=O)[C@H](Cc3ccc(OC)cc3)NC2=O)cc1` (cyclo(PY(Me)Y(Me)[dNMeY]V)) yielded a pIC50 (Human alphaherpesvirus 1 [1]) of 5.02.
For `COC(=O)/C(C)=C/COc1cc(=O)oc(/C=C/C=C/C=C/[C@H]2O[C@H]3O[C@H](C)[C@](C)(O)[C@@]3(C)[C@H]2O)c1C`, the pIC50 (Influenza A virus [2]) was 8.05.
With `CC(O)c1cc2c(cc1O)C(=O)c1cc(O)cc(O)c1C2=O` (configuration not stated) the pIC50 (Enterovirus A71 [3]) was 4.59.
Compound `CC(=O)c1c(O)cc2c3c(cccc13)C=C(C[C@@H](C)O)O2` has an inhibition at 50 µg/mL (Influenza A virus [4]) of 42.5%.
With `CC1(C)CCc2cc(/C=C3\OC(=O)C=C3c3ccc(O)cc3)ccc2O1` the pIC50 (Influenza A virus [5]) was 4.06.
Work on `C=C(C)C#CC1=C[C@@H]2O[C@@H](C(C)(C)O)C[C@]23O[C@@H]3[C@H]1O` yielded a pIC50 [6] of under 4.00.
`CCCCC/C=C/C1=C(CO)[C@@H]2OC(C)(C)[C@@H](O)C[C@]2(O)[C@H](O)[C@@H]1O` showed a pIC50 [7] of 4.14.
Compound `CCC[C@H]1C[C@H]2OC(=O)c3c(cc(OC)c(OC)c3O)[C@H]2O1` [MONOCERIN] has a pIC50 (Influenza A virus [5]) of 3.76.
In the case of `CCCCCCCCC[C@H]1CCCC(=O)N[C@H]([C@@H](C)O)C(=O)N[C@H](C)C(=O)N2CCC[C@H]2C(=O)N[C@@H](CCC(N)=O)C(=O)N[C@H](Cc2ccc(O)cc2)C(=O)N[C@@H](C(C)C)C(=O)O1`, the pEC50 (Human alphaherpesvirus 1 [8]) was 4.78.
With `C/C=C(\C)[C@H]1C(C)=C[C@@H]2CCC[C@H](C)[C@H]2[C@@H]1/C(O)=C1\C(=O)[C@@H](C(C)C)N(C)C1=O` the pIC50 (Human alphaherpesvirus 1 [9]) was 5.51.
Compound `NC(=O)c1ncn([C@@H]2O[C@H](CO)[C@@H](O)[C@H]2O)n1` [RIBAVIRIN] has a pIC50 (Influenza A virus [5]) of 4.41, a pIC50 (Influenza A virus [10]) of 3.88 and an inhibition at 50 µg/mL (Influenza A virus [4]) of 45.3%. The pIC50 [7] was 7.10, the pIC50 (Enterovirus A71 [11]) was 4.88 and the pIC50 (Enterovirus A71 [3]) was 4.88.
For `COc1cc(CCCC(C)C)oc(=O)c1C`, the pIC50 [12] was 4.79 and the pIC50 [6] was under 4.00.
For `Nc1nc2c(ncn2COC(CO)CO)c(=O)[nH]1` [GANCICLOVIR], the pEC50 (Human alphaherpesvirus 1 [13]) was 7.60.
For `COc1cc(O)c2c(c1)[C@H](O)[C@](O)(CC(C)O)CC2=O` (some centres not stated), the IC50 (Human alphaherpesvirus 1 [14]) was 0.01 µg/mL (≈ 0.0354 µM).
In the case of `CC[C@H]1O[C@@H]2O[C@H](/C=C/C=C/C=C/c3oc(=O)cc(OC/C=C(\C)C(=O)OC)c3C)[C@H](O)[C@]2(C)[C@@]1(C)O`, the pIC50 (Influenza A virus [2]) was 8.21 and the pIC50 (Influenza A virus [15]) was 5.46.
For `CC(=O)C(C)(O)CCCCC[C@H]1C=CC(=O)O1` (some centres not stated), the pEC50 (Human alphaherpesvirus 1 [13]) was 4.60.
`CC1=C[C@@H]2CCC[C@H](C)[C@H]2[C@H](/C(O)=C2\C(=O)[C@@H](C(C)C)N(C)C2=O)[C@H]1[C@@H]1O[C@H]1C` showed a pIC50 (Human alphaherpesvirus 1 [9]) of 5.03.
Compound `O=C(O)c1ccccc1Nc1c(C[C@H](O)[C@H](O)CO)[nH]c2c(C(=O)O)cccc12` has a pIC50 (Influenza A virus [10]) of 3.77.
Compound `CC(C)[C@@H](NC(=O)[C@H](Cc1c[nH]c2ccccc12)NC(=O)[C@H](N)Cc1ccc(O)cc1)C(=O)O` has a pIC50 (Human alphaherpesvirus 1 [1]) of 4.70.
`COC1(Cc2ccc(O)cc2)OC(=O)C(O)=C1c1ccc(O)cc1` (configuration not stated) gave an IC50 (Human alphaherpesvirus 1 [16]) of 21.8 µg/mL (≈ 66.4 µM).
`CCC(C)[C@@H]1C(=O)/C(=C(/O)[C@@H]2[C@@H]([C@@H]3O[C@H]3C)C(C)=C[C@@H]3CCC[C@H](C)[C@@H]23)C(=O)N1C` (some centres not stated) showed a pIC50 (Human alphaherpesvirus 1 [9]) of 5.51.
In the case of `CC(=O)[C@H]1CC[C@H]2C3=CC(=O)[C@H]4C[C@H](O)CC[C@]4(C)[C@H]3CC[C@]12C`, the pIC50 (Influenza A virus [17]) was 4.79.
`CCCCCCCCC[C@H]1CCCC(=O)N[C@H](CO)C(=O)N[C@H](C)C(=O)N2CCC[C@H]2C(=O)N[C@@H](CCC(N)=O)C(=O)N[C@H](Cc2ccc(O)cc2)C(=O)N[C@@H](C(C)C)C(=O)O1` showed a pEC50 (Human alphaherpesvirus 1 [8]) of 4.81.
In the case of `CCCCCCCC[C@H]1C(=O)O[C@H](C)[C@H](NC(=O)c2cccc(NC=O)c2O)C(=O)O[C@@H](C)[C@@H]1OC(=O)CC(C)CC` (some centres not stated), the pIC50 [18] was 8.52.
